Data as given in the kinase profiling compilation of Christmann-Franck et al. (2016).

Key:
Assay in all cases: KINOMEscan competition binding
Details in all cases: compound 10.0 µM
[1] = system: EGFR (human), P00533 [G719C]
[2] = system: RET (human), P07949 [V804L]
[3] = system: PIK3CA (human), P42336 [H1047L]
[4] = system: BMX (human), P51813 [V600E]
[5] = system: PIK3CA (human), P42336 [E542K]
[6] = system: PIK3CA (human), P42336 [M1043I]
[7] = system: EGFR (human), P00533 [A750P; 747-749 del]
[8] = system: LRRK2 (human), Q5S007 [G2019S]
[9] = system: EGFR (human), P00533 [L858R]
[10] = system: KIT (human), P10721 [A829P]
[11] = system: FGFR3 (human), P22607 [G697C]
[12] = system: FLT3 (human), P36888 [D835Y]
[13] = system: KIT (human), P10721 [D816H]
[14] = system: MET (human), P08581 [M1250T]

Chain of LRRK2 (human), Q5S007 [G2019S] (Q5S007 whole entry G2019S, looked up): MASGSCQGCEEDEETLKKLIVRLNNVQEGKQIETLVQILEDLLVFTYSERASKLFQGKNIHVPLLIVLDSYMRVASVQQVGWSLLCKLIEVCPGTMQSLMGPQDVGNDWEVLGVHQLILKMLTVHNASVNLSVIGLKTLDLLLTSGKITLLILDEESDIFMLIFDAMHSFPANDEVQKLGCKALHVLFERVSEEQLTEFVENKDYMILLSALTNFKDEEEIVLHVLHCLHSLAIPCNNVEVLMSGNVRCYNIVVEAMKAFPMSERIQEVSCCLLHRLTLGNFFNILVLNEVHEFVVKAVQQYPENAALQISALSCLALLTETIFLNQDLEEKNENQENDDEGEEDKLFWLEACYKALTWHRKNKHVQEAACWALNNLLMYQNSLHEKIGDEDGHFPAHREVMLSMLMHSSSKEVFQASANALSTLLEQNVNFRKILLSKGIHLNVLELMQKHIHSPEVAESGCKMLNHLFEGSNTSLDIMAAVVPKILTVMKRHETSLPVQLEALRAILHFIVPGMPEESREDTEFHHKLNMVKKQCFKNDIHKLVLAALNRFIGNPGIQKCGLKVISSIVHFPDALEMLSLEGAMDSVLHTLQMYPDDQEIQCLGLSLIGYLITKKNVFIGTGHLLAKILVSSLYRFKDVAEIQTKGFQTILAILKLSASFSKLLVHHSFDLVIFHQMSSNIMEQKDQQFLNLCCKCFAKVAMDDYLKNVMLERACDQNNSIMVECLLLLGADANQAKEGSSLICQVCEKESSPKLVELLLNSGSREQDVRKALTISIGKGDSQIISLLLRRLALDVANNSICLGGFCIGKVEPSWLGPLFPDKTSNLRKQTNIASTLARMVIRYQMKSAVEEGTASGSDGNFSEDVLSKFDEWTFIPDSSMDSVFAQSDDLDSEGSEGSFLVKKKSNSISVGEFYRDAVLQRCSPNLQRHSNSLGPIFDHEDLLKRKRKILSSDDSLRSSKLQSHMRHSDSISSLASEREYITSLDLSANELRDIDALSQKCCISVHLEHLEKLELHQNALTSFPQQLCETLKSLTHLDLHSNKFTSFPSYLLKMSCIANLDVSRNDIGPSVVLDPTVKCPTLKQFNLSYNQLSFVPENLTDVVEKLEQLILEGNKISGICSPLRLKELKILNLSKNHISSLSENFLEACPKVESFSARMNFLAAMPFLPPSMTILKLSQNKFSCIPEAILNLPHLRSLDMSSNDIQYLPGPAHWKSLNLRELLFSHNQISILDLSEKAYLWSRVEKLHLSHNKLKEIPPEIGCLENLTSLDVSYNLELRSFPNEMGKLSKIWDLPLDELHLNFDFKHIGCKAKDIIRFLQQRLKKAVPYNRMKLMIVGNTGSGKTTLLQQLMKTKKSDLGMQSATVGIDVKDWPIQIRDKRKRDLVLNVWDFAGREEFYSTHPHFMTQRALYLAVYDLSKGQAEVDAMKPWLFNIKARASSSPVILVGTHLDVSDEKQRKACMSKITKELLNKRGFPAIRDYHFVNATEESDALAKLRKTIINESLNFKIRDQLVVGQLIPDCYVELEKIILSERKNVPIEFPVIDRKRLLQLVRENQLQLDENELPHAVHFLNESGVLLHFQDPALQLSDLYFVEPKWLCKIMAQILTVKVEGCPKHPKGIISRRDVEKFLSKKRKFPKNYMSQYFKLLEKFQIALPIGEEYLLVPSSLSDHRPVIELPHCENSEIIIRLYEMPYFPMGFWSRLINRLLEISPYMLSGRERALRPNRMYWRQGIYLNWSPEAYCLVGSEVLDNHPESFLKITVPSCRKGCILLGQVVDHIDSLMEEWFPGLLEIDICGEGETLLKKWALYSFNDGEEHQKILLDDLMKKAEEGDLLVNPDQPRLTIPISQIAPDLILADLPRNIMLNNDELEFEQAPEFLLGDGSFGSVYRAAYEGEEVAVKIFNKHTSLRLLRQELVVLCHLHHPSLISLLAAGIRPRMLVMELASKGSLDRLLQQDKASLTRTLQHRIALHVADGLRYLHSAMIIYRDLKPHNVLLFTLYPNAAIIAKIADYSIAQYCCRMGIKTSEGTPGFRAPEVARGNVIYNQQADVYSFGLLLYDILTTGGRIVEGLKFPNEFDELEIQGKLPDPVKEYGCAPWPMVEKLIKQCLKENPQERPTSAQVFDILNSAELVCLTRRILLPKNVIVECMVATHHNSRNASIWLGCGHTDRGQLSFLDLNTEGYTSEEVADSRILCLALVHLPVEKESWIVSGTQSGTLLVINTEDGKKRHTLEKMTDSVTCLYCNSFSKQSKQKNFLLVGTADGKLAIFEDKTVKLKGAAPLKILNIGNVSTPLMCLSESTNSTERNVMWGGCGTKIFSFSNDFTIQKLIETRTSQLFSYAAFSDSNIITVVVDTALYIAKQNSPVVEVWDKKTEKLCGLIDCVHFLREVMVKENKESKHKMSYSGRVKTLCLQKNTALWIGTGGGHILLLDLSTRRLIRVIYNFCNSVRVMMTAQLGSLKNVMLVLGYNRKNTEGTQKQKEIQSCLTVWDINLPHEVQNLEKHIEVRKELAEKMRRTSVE
Chain of PIK3CA (human), P42336 [M1043I] (P42336 whole entry M1043I, looked up): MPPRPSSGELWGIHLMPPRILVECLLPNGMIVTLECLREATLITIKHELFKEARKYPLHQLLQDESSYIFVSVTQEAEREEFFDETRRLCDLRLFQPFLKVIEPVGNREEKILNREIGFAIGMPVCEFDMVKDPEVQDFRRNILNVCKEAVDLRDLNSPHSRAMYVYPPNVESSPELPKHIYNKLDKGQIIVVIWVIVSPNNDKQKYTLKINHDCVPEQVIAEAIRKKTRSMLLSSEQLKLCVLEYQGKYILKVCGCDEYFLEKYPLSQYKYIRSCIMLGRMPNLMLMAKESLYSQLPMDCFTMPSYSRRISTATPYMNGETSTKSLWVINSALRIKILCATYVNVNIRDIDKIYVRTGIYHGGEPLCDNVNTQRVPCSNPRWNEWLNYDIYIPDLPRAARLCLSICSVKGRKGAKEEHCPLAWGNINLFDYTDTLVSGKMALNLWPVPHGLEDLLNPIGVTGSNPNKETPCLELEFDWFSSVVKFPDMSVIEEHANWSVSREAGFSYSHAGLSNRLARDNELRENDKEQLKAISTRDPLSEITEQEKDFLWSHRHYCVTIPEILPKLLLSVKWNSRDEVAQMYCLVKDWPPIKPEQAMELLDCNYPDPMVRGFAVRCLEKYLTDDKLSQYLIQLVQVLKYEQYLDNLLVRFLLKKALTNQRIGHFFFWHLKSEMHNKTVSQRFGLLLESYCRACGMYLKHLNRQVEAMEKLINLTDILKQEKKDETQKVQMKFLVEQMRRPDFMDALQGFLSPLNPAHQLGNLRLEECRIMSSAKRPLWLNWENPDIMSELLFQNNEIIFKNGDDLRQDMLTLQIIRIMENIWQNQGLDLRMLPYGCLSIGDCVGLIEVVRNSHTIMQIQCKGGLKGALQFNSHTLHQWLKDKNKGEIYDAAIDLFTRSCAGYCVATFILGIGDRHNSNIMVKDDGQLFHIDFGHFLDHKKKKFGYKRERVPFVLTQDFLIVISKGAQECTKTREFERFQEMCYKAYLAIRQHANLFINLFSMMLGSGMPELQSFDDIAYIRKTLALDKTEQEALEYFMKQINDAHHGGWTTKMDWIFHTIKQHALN
Chain of BMX (human), P51813 [V600E] (P51813 whole entry, looked up, stated change not applied): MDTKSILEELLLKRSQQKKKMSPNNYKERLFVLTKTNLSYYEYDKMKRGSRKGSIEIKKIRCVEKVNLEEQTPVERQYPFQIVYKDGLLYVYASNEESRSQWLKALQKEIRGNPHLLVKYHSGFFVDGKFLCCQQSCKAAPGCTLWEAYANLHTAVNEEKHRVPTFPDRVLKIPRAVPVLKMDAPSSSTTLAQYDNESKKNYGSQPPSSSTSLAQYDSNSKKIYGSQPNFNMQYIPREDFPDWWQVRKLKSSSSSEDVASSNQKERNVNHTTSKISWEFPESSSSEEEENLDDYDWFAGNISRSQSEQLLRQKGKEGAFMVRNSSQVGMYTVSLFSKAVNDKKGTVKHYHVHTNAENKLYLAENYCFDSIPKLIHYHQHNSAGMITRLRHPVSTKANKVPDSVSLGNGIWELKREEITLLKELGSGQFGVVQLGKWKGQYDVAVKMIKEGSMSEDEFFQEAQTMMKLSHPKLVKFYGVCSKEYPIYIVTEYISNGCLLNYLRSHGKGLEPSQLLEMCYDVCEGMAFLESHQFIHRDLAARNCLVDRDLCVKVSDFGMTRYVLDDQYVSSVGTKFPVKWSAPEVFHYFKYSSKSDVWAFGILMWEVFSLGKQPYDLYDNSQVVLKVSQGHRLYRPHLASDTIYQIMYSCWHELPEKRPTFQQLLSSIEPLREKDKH
Chain of PIK3CA (human), P42336 [E542K] (P42336 whole entry E542K, looked up): as the sequence (P42336 whole entry M1043I, looked up) above, with E542K, I1043M counted along it
Chain of PIK3CA (human), P42336 [H1047L] (P42336 whole entry H1047L, looked up): as the sequence (P42336 whole entry M1043I, looked up) above, with I1043M, H1047L counted along it

## O=C1Nc2ccc(I)cc2/C1=C/c1cc(Br)c(O)c(Br)c1
[1]
  kinase still bound, per cent of control: 80%
[2]
  kinase still bound, per cent of control: 100%
[3]
  kinase still bound, per cent of control: 97%
[4]
  kinase still bound, per cent of control: 0.1%
[5]
  kinase still bound, per cent of control: 84%
[6]
  kinase still bound, per cent of control: 76%
[7]
  kinase still bound, per cent of control: 36%
[8]
  kinase still bound, per cent of control: 9%
[9]
  kinase still bound, per cent of control: 32%
[10]
  kinase still bound, per cent of control: 93%
[11]
  kinase still bound, per cent of control: 76%
[12]
  kinase still bound, per cent of control: 13%
[13]
  kinase still bound, per cent of control: 99%
[14]
  kinase still bound, per cent of control: 80%

## CCN(CC)CCCCNc1ncc2cc(-c3cc(OC)cc(OC)c3)c(NC(=O)NC(C)(C)C)nc2n1
[4]
  kinase still bound, per cent of control: 100%
[11]
  kinase still bound, per cent of control: 3.7%
[12]
  kinase still bound, per cent of control: 100%

## O=C(O)c1ccc(Nc2ncc3c(n2)-c2ccc(Cl)cc2C(c2c(F)cccc2F)=NC3)cc1
[1]
  kinase still bound, per cent of control: 77%
[2]
  kinase still bound, per cent of control: 88%
[3]
  kinase still bound, per cent of control: 79%
[7]
  kinase still bound, per cent of control: 28%
[8]
  kinase still bound, per cent of control: 100%
[9]
  kinase still bound, per cent of control: 29%
[10]
  kinase still bound, per cent of control: 100%
[11]
  kinase still bound, per cent of control: 12%
[12]
  kinase still bound, per cent of control: 72%
[14]
  kinase still bound, per cent of control: 58%

## O=C(NOC[C@H](O)CO)c1ccc(F)c(F)c1Nc1ccc(I)cc1F
[1]
  kinase still bound, per cent of control: 86%
[2]
  kinase still bound, per cent of control: 93%
[3]
  kinase still bound, per cent of control: 45%
[4]
  kinase still bound, per cent of control: 100%
[5]
  kinase still bound, per cent of control: 57%
[6]
  kinase still bound, per cent of control: 42%
[8]
  kinase still bound, per cent of control: 100%
[9]
  kinase still bound, per cent of control: 79%
[11]
  kinase still bound, per cent of control: 88%
[12]
  kinase still bound, per cent of control: 100%
[13]
  kinase still bound, per cent of control: 91%
[14]
  kinase still bound, per cent of control: 92%

## CNC(=O)c1cc(Oc2ccc(NC(=O)Nc3ccc(Cl)c(C(F)(F)F)c3)cc2)ccn1
[2]
  kinase still bound, per cent of control: 0.1%
[4]
  kinase still bound, per cent of control: 0.05%
[10]
  kinase still bound, per cent of control: 59%
[11]
  kinase still bound, per cent of control: 39%
[12]
  kinase still bound, per cent of control: 3.2%
[13]
  kinase still bound, per cent of control: 36%
[14]
  kinase still bound, per cent of control: 83%

## Nc1ccc(-c2ccc3ncc4ccc(=O)n(-c5cccc(C(F)(F)F)c5)c4c3c2)cn1
[1]
  kinase still bound, per cent of control: 71%
[2]
  kinase still bound, per cent of control: 100%
[3]
  kinase still bound, per cent of control: 0%
[4]
  kinase still bound, per cent of control: 95%
[7]
  kinase still bound, per cent of control: 100%
[8]
  kinase still bound, per cent of control: 81%
[9]
  kinase still bound, per cent of control: 100%
[10]
  kinase still bound, per cent of control: 64%
[11]
  kinase still bound, per cent of control: 89%
[12]
  kinase still bound, per cent of control: 32%
[13]
  kinase still bound, per cent of control: 80%
[14]
  kinase still bound, per cent of control: 100%

## CCCS(=O)(=O)Nc1ccc(F)c(C(=O)c2c[nH]c3ncc(-c4ccc(Cl)cc4)cc23)c1F
[1]
  kinase still bound, per cent of control: 28%
[2]
  kinase still bound, per cent of control: 90%
[3]
  kinase still bound, per cent of control: 95%
[4]
  kinase still bound, per cent of control: 0.2%
[5]
  kinase still bound, per cent of control: 100%
[7]
  kinase still bound, per cent of control: 74%
[8]
  kinase still bound, per cent of control: 70%
[10]
  kinase still bound, per cent of control: 89%
[11]
  kinase still bound, per cent of control: 100%
[13]
  kinase still bound, per cent of control: 98%
[14]
  kinase still bound, per cent of control: 25%

## Cc1ccc2nc(NCCN)c3ncc(C)n3c2c1
[2]
  kinase still bound, per cent of control: 100%
[3]
  kinase still bound, per cent of control: 100%
[4]
  kinase still bound, per cent of control: 60%
[5]
  kinase still bound, per cent of control: 100%
[6]
  kinase still bound, per cent of control: 100%
[7]
  kinase still bound, per cent of control: 100%
[11]
  kinase still bound, per cent of control: 100%
[12]
  kinase still bound, per cent of control: 97%
[13]
  kinase still bound, per cent of control: 100%
[14]
  kinase still bound, per cent of control: 100%

## N#Cc1c(NC(=O)c2cccc3ccccc23)sc2c1CCCC2
[2]
  kinase still bound, per cent of control: 90%
[3]
  kinase still bound, per cent of control: 70%
[4]
  kinase still bound, per cent of control: 93%
[5]
  kinase still bound, per cent of control: 100%
[6]
  kinase still bound, per cent of control: 100%
[8]
  kinase still bound, per cent of control: 94%
[10]
  kinase still bound, per cent of control: 87%
[11]
  kinase still bound, per cent of control: 83%
[12]
  kinase still bound, per cent of control: 80%
[13]
  kinase still bound, per cent of control: 85%
[14]
  kinase still bound, per cent of control: 100%
